Data from patent US8759528B2, “Piperidine derivatives, pharmaceutical compositions and uses thereof” (Boehringer Ingelheim International GmbH, priority 2011, dated 2014).
pIC50: −log10 of the molar value.

Target: T1, human ACC2 (Homo sapiens, UniProt O00763)
T1 construct: lacks the 128 amino acids at the N-terminus for increased solubility (nt 385-6966 in Genbank entry AJ575592); made in house; host or cells: insect cells (baculoviral expression system)
Assay: ACC2 spectrophotometric 384 well assay (NADH-linked, coupled lactate dehydrogenase/pyruvate kinase)
Format: biochemical
Settings: hACC2 construct lacking the 128 N-terminal amino acids; 25° C., 340 nm, 15 minutes
Procedure: Spectrophotometric 384 Well Assay
Malonyl CoA formation by acetyl CoA carboxylases is stoichometrically linked to the consumption of ATP. ACC2 activity is measured in a NADH-linked kinetic method measuring ADP generated during the ACC reaction using a coupled lactate dehydrogenase/pyruvate kinase reaction.
For biological testing, a human ACC2 construct which lacks the 128 amino acids at the N-terminus for increased solubility (nt 385-6966 in Genbank entry AJ575592) is cloned. The protein is then expressed in insect cells using a baculoviral expression system. Protein purification is performed by anion exchange. All compounds are dissolved in dimethyl sulfoxide (DMSO) to a concentration of 10 mM.
Assay reactions are then carried out in 384-well plates, with hACC2 in an appropriate dilution and at final assay concentrations (f.c.) of 100 mM Tris (pH 7.5), 10 mM trisodium citrate, 25 mM KHCO3, 10 mM MgCl2, 0.5 mg/ml BSA, 3.75 mM reduced L-glutathione, 15 U/ml lactate dehydrogenase, 0.5 mM phosphoenolpyruvate, 15 U/ml pyruvate kinase, compounds at different concentrations at final DMSO concentrations of 1%.
The enzymatic reaction is then started by addition of a mixture of NADH, acetyl Coenzyme A (both […].) and ATP (500 uM f.c.). The decrease of the optical density (slope S) is then determined at 25° C. at a wavelength of 340 nm over 15 minutes in a spectrophotometric reader.
Each assay microtiter plate contains wells with vehicle instead of compound as controls for the non-inhibited enzyme (100% CTL; ‘HIGH’) and wells without acetyl-CoA as controls for non-specific NADH degradation (0% CTL; ‘LOW’).
The slope S is used for calculation of % CTL=(S(compound)−S(‘LOW’))/(S('HIGH)−S(‘LOW’))*100. Compounds will give values between 100% CTL (no inhibition) and 0% CTL (complete inhibition).
For IC50 value determination, the sample slope in the presence of the test compound after subtraction of the low controls (S(compound)−S(‘LOW’)) are used.
An IC50 value is derived from the compound slopes at different dosages after subtraction of the low controls (S(compound)−S(‘LOW’)) by non-linear regression curve fitting (equation y=(A+((B−A)/(1+((C/x)^D))))).

T1 sequence (O00763 129-2458 limits assumed): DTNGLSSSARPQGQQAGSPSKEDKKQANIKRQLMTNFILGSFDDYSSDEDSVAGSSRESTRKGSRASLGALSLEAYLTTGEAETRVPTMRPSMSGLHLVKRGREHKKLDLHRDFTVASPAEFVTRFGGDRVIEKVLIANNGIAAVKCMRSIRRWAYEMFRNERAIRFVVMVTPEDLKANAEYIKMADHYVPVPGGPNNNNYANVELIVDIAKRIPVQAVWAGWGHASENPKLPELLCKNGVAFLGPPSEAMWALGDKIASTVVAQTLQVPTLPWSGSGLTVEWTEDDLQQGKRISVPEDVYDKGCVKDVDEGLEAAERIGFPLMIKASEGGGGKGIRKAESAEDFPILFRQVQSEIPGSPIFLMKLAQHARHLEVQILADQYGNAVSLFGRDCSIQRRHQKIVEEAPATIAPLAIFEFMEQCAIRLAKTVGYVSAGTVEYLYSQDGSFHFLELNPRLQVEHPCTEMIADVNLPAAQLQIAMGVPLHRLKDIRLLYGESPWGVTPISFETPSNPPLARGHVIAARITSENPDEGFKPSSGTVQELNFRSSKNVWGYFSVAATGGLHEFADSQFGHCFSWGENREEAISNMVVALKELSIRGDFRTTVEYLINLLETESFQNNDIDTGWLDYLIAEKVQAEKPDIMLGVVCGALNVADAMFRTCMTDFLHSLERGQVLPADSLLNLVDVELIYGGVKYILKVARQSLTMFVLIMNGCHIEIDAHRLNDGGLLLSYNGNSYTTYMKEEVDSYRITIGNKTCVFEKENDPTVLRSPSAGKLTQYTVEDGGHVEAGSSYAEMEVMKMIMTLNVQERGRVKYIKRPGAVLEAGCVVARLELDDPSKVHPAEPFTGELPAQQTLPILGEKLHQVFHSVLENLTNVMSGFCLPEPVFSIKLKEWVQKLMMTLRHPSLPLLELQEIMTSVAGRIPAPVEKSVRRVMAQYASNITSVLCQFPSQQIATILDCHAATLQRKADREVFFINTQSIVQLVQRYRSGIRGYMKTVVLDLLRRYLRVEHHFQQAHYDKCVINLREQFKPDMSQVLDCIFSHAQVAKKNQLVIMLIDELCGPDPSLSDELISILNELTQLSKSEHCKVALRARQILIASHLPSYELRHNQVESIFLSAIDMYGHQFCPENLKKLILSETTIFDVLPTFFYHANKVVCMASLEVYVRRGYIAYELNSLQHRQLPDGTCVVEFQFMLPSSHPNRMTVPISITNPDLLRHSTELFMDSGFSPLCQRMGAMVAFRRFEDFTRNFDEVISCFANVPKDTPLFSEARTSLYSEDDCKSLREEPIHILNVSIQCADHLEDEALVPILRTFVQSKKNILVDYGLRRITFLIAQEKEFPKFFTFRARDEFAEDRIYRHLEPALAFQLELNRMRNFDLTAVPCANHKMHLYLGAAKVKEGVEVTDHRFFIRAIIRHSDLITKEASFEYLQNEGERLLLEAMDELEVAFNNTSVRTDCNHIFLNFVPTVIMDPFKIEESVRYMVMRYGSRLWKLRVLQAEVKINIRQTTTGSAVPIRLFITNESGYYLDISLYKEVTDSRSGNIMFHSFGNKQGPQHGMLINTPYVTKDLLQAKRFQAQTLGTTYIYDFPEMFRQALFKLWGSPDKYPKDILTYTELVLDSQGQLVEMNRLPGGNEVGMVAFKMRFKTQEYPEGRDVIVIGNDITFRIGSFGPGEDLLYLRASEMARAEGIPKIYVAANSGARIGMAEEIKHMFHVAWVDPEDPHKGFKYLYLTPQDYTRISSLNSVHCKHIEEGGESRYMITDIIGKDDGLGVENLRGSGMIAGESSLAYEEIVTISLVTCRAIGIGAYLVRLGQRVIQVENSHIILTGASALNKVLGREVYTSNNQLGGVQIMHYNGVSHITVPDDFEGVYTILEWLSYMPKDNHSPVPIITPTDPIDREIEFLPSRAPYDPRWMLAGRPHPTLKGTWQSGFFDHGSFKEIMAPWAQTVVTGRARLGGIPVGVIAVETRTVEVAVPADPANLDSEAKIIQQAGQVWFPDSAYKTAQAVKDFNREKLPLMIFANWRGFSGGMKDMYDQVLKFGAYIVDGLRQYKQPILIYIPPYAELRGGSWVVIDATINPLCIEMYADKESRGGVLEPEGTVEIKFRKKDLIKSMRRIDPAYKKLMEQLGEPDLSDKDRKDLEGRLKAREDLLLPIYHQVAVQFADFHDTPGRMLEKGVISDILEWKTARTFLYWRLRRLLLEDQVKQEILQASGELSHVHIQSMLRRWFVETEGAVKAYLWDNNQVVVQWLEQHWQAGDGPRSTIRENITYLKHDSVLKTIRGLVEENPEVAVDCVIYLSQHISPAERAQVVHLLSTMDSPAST

pIC50 | SMILES
6.62 | CCNC(=O)C(C)c1ccc(C2CCN(c3ccc(OCC)cc3)CC2)cc1 (stereo not drawn) [Example 1.1, 2-{-4-[1-(4-Ethoxy-phenyl)-piperidin-4-yl]-phenyl}-N-ethyl-propionamide]
6.68 | CCNC(=O)C(C)c1ccc(C2CCN(c3ccc(OC4CC4)cc3)CC2)cc1 (stereo not drawn) [Example 1.2]
6.62 | CCNC(=O)C(C)c1ccc(C2CCN(c3ccc(OCC4CC4)cc3)CC2)cc1 (stereo not drawn) [Example 1.3]
6.05 | CCNC(=O)C(C)c1ccc(C2CCN(c3ccc(OC(C)CC)cc3)CC2)cc1 (stereo not drawn) [Example 1.4]
6.92 | CCNC(=O)C(C)c1ccc(C2CCN(c3ccc(OC4CCC4)cc3)CC2)cc1 (stereo not drawn) [Example 1.5]
6.29 | CCNC(=O)C(C)c1ccc(C2CCN(c3ccnc(OCC)c3)CC2)cc1 (stereo not drawn) [Example 1.6]
6.49 | CCCOc1ccc(N2CCC(c3ccc(C(C)C(=O)NCC)cc3)CC2)c(OC)c1 (stereo not drawn) [Example 1.7]
6.74 | CCCOc1ccc(N2CCC(c3ccc(C(C)C(=O)NCC)cc3)CC2)cc1 (stereo not drawn) [Example 1.8]
6.29 | CCNC(=O)C(C)c1ccc(C2CCN(c3ccc(OC(C)C)cc3OC)CC2)cc1 (stereo not drawn) [Example 1.9]
6.28 | CCNC(=O)C(C)c1ccc(C2CCN(c3ccc(OC4CC4)cc3OC)CC2)cc1 (stereo not drawn) [Example 1.11]
6.48 | CCNC(=O)C(C)c1ccc(C2CCN(c3ccc(OCC)cc3F)CC2)cc1 (stereo not drawn) [Example 1.12]
6.85 | CCOc1ccc(N2CCC(c3ccc(C(C)C(=O)NC4CC4)cc3)CC2)c(F)c1 (stereo not drawn) [Example 1.13]
7.10 | CC(C(=O)NC1CC1)c1ccc(C2CCN(c3ccc(OCC4CC4)cc3)CC2)cc1 (stereo not drawn) [Example 1.14]
6.12 | CCNC(=O)C(C)c1ccc(C2CCN(c3ccc(OCC4CC4)cc3OC)CC2)cc1 (stereo not drawn) [Example 2.1, 2-{-4-[1-(4-Cyclopropylmethoxy-2-methoxy-phenyl)-piperidin-4-yl]-phenyl}-N-ethyl-propionamide]
6.60 | CCNC(=O)C(C)c1ccc(C2CCN(c3ccc(OC4CCC4)cc3OC)CC2)cc1 (stereo not drawn) [Example 2.2]
6.82 | CC(C(=O)NC1CC1)c1ccc(C2CCN(c3ccc(OCC4CC4)cc3C#N)CC2)cc1 (stereo not drawn) [Example 3.1, 2-{4-[1-(2-Cyano-4-cyclopropylmethoxy-phenyl)-piperidin-4-yl]-phenyl}-N-cyclopropyl-propionamide]
6.35 | CCNC(=O)C(C)c1ccc(C2CCN(c3ccc(OC)cc3C#N)CC2)cc1 (stereo not drawn) [Example 3.2]
6.85 | CCOc1ccc(N2CCC(c3ccc(C(C)C(=O)NC4CC4)cc3)CC2)c(C#N)c1 (stereo not drawn) [Example 3.3]
6.92 | CCCOc1ccc(N2CCC(c3ccc(C(C)C(=O)NC4CC4)cc3)CC2)c(C#N)c1 (stereo not drawn) [Example 3.4]
7.00 | CCOc1ccc(N2CCC(c3ccc(C(C)C(=O)NC4CC4)cc3)CC2)cc1 (stereo not drawn) [Example 4.1, N-Cyclopropyl-2-{4-[1-(4-ethoxy-phenyl)-piperidin-4-yl]-phenyl}-propionamide]
6.40 | CCNC(=O)Cc1ccc(C2CCN(c3ccnc(N(C)C4CCCC4)n3)CC2)cc1 [Example 4.2]
6.12 | CCOc1ccc(N2CCC(c3ccc(C(C)C(=O)NC)cc3)CC2)cc1 (stereo not drawn) [Example 4.3]
5.18 | CCOc1ccc(N2CCC(c3ccc(C(C)C(=O)N(C)C)cc3)CC2)cc1 (stereo not drawn) [Example 4.4]
5.28 | CCOc1ccc(N2CCC(c3ccc(C(C)C(=O)N(C)CC)cc3)CC2)cc1 (stereo not drawn) [Example 4.5]
7.10 | CCOc1ccc(N2CCC(c3ccc(C(C)C(=O)Nc4ccccc4)cc3)CC2)cc1 (stereo not drawn) [Example 4.6]
5.90 | CN(c1nccc(N2CCC(c3ccc(CC(N)=O)cc3)CC2)n1)C1CCCC1 [Example 4.7]
4.90 | CCN(C)C(=O)Cc1ccc(C2CCN(c3ccnc(N(C)C4CCCC4)n3)CC2)cc1 [Example 4.8]

pIC50 | SMILES
5.26 | CN(c1nccc(N2CCC(c3ccc(CC(=O)N4CCOCC4)cc3)CC2)n1)C1CCCC1 [Example 4.9]
5.38 | CN(c1nccc(N2CCC(c3ccc(CC(=O)NC4CCCC4)cc3)CC2)n1)C1CCCC1 [Example 4.10]
6.14 | CN(c1nccc(N2CCC(c3ccc(CC(=O)Nc4ccccc4)cc3)CC2)n1)C1CCCC1 [Example 4.11]
5.10 | CN(c1nccc(N2CCC(c3ccc(CC(=O)NCc4ccccc4)cc3)CC2)n1)C1CCCC1 [Example 4.12]
5.73 | CC(C)CNC(=O)Cc1ccc(C2CCN(c3ccnc(N(C)C4CCCC4)n3)CC2)cc1 [Example 4.13]
5.32 | COCCNC(=O)Cc1ccc(C2CCN(c3ccnc(N(C)C4CCCC4)n3)CC2)cc1 [Example 4.14]
6.54 | CCCNC(=O)C(C)c1ccc(C2CCN(c3ccc(OCC)cc3)CC2)cc1 (stereo not drawn) [Example 4.15]
6.19 | CCOc1ccc(N2CCC(c3ccc(C(C)C(=O)NCC4CC4)cc3)CC2)cc1 (stereo not drawn) [Example 4.16]
6.11 | CCOc1ccc(N2CCC(c3ccc(C(C)C(N)=O)cc3)CC2)cc1 (stereo not drawn) [Example 4.17]
6.43 | CCNC(=O)C(C)c1ccc(C2CCN(c3ccnc(N(C)C4CCCC4)n3)CC2)cc1 (stereo not drawn) [Example 5.1, 2-(4-{1-[2-(Cyclopentyl-methyl-amino)-pyrimidin-4-yl]-piperidin-4-yl}-phenyl)-N-ethyl-propionamide]
6.20 | CCNC(=O)C(C)c1ccc(C2CCN(c3ccnc(N(C)C)n3)CC2)cc1 (stereo not drawn) [Example 5.2]
5.12 | CCNC(=O)C(C)c1ccc(C2CCN(c3ccnc(NC(C)C)n3)CC2)cc1 (stereo not drawn) [Example 5.3]
5.26 | CCNC(=O)C(C)c1ccc(C2CCN(c3ccnc(OCC)n3)CC2)cc1 (stereo not drawn) [Example 6.1, 2-{4-[1-(2-Ethoxy-pyrimidin-4-yl)-piperidin-4-yl]-phenyl}-N-ethyl-propionamide]
5.52 | CCNC(=O)C(C)c1ccc(C2CCN(c3ccnc(OC(C)C)n3)CC2)cc1 (stereo not drawn) [Example 6.2]
6.00 | CCNC(=O)C(C)c1ccc(N2CCC(c3ccc(OCC)cc3)CC2)cc1 (stereo not drawn) [Example 7.1, 2-{4-[4-(4-Ethoxy-phenyl)-piperidin-1-yl]-phenyl}-N-ethyl-propionamide]
6.00 | CCNC(=O)C(C)c1ccc(N2CCC(c3ccc(OCC4CC4)cc3F)CC2)cc1 (stereo not drawn) [Example 7.2]
6.05 | CCOc1ccc(C2CCN(c3ccc(C(C)C(=O)NC4CC4)cc3)CC2)cc1 (stereo not drawn) [Example 7.3]
6.66 | CCCOc1ccc(C2CCN(c3ccc(C(C)C(=O)NCC)cc3)CC2)cc1 (stereo not drawn) [Example 7.4]
6.44 | CCNC(=O)C(C)c1ccc(N2CCC(c3ccc(OCC4CC4)cc3)CC2)cc1 (stereo not drawn) [Example 7.5]
5.64 | CCNC(=O)C(C)c1ccc(N2CCC(c3cccc(OCC4CC4)c3)CC2)cc1 (stereo not drawn) [Example 7.6]
6.47 | CCNC(=O)C(C)c1ccc(N2CCC(c3ccc(OC(C)C)cc3)CC2)cc1 (stereo not drawn) [Example 7.7]
5.78 | CCNC(=O)C(C)c1ccc(N2CCC(c3cccc(OC4CCC4)c3)CC2)cc1 (stereo not drawn) [Example 7.8]
6.92 | CCNC(=O)C(C)c1ccc(N2CCC(c3ccc(OC4CCC4)cc3)CC2)cc1 (stereo not drawn) [Example 7.9]
6.08 | CCCOc1ccc(C2CCN(c3ccc(C(C)C(=O)NCC)cc3)CC2)c(C)c1 (stereo not drawn) [Example 7.10]
5.41 | CCCOc1cccc(C2CCN(c3ccc(C(C)C(=O)NCC)cc3)CC2)c1 (stereo not drawn) [Example 7.11]
5.74 | CCNC(=O)C(C)c1ccc(N2CCC(c3cccc(OC(C)C)c3)CC2)cc1 (stereo not drawn) [Example 7.12]
5.32 | CCNC(=O)C(C)c1ccc(N2CCC(c3cccc(OCC)c3)CC2)cc1 (stereo not drawn) [Example 7.13]
